The text below walks through data of patent publication US20250026748A1, “N-(5-SUBSTITUTED-[(1,3,4-THIADIAZOLYL) OR (THIAZOLYL)])(SUBSTITUTED)CARBOXAMIDE COMPOUNDS AND USE THEREOF FOR INHIBITING HUMAN POLYMERASE THETA” (Repare Therapeutics Inc., priority 2021, published 2025).

This assay concerns the target PolQ ATPase enzyme (1-894) (Homo sapiens (Human), UniProt O75417). As to the kind of experiment: Polθ ATPase enzymatic assay (0.5 nM enzyme concentration), ADP-Glo. Type of assay: biochemical. The note with it: average IC50; 0.5 nM PolQ ATPase enzyme (1-894). An outline of the steps:
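Enzyme (0.5 nM) pre-incubated 15 min at rt with 10-point inhibitor series in 50 mM Tris pH 7.5, 10% glycerol, 5 mM DTT, 10 mM MgCl2, 0.1 mg/ml BSA; reaction started with 20 nM fork DNA and 100 μM ATP, run 180 min at rt. ADP-Glo luminescence; IC50 from 4-parameter variable-slope fit.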
In general terms: ADP-Glo first removes unused ATP, then detects ADP through luciferase.

Chain of PolQ ATPase enzyme (1-894) (O75417 1-894): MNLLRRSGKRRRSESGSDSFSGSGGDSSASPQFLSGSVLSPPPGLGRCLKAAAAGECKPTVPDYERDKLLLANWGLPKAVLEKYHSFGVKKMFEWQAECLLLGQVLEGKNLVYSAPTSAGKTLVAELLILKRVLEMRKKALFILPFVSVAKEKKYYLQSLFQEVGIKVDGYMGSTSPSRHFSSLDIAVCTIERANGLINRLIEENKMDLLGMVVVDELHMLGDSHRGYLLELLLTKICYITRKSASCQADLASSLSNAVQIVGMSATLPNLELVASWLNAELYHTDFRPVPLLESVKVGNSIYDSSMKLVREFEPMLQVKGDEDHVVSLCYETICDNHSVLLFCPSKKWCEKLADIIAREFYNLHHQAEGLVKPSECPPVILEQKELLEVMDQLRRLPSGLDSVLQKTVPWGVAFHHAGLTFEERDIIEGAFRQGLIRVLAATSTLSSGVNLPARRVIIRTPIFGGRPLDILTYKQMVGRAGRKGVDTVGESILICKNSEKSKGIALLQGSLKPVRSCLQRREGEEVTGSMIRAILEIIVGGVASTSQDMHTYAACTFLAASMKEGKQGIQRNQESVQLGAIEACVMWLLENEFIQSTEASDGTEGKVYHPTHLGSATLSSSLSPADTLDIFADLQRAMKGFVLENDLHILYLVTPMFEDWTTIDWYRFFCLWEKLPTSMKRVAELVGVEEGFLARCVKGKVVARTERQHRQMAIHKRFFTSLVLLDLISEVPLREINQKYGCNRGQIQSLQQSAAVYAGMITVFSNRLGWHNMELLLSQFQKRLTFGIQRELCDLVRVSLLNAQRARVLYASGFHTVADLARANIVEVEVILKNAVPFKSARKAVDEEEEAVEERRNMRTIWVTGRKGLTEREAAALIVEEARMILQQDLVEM

On to `COc1cnc(C(F)F)cc1-c1cn2cc(C(=O)N(C)C)nc2cc1C(=O)Nc1nnc(C#CC2CC2)s1` [Compound 315], for which half-maximal inhibition (IC50) was put at 4.5 nM.

For `COc1cnc(C(F)F)cc1-c1ccncc1C(=O)Nc1nnc(C#CC2CC2)s1` [Compound 316], 1.6 nM corresponded to half-maximal inhibition (IC50).

Regarding `CN(C)C(=O)Cn1cc(-c2cc(C(F)F)ccc2Cl)c(C(=O)Nc2nnc(C#CC3CC3)s2)cc1=O` [Compound 317], the IC50 (commonly the concentration at which inhibition is half-maximal) was less than 0.25 nM.

`COc1cnc(Cl)cc1-c1cnccc1C(=O)Nc1nnc(C2C[C@H]2c2ccc(C#N)nc2)s1` (some centres unmarked) [Compound 318] showed a half-maximal inhibitory concentration (IC50) of 4.8 nM.

In the case of `Cn1cc(-c2cc(Cl)ncc2OC(F)F)c(C(=O)Nc2nnc(C#CC3CC34CC4)s2)cc1=O` (centres unmarked) [Compound 320], the IC50 is less than 0.25 nM.

Take `COc1ccc(C(F)F)cc1-c1cc(C#N)ncc1C(=O)Nc1nnc(C#CC2CC2)s1` [Compound 321]: the IC50 turned out to be 0.41 nM.

Turning to `COc1cnc(C(F)F)cc1-c1cn(C)c(=O)cc1C(=O)Nc1nnc(C2C[C@H]2c2ccc(C#N)cc2)s1` (some centres unmarked) [Compound 322], the IC50 amounted to 1.9 nM.

`C#C[C@@H]1CC1c1nnc(NC(=O)c2ccncc2-c2cc(C(F)F)ncc2OC)s1` (some centres unmarked) [Compound 323] gave an IC50 of 4.5 nM. Against the preceding compound, the IC50 is about 2.4-fold higher.

In the case of `COc1ccc(C(F)F)cc1-c1cn2cc(C(=O)N(C)C)nc2cc1C(=O)Nc1nnc(C#CC2CC2)s1` [Compound 324], the IC50 worked out at 0.4 nM.

For `COc1cc(N2CCOCC2)c(C(F)(F)F)cc1-c1cnccc1C(=O)Nc1nnc(C#CC2CC2)s1` [Compound 325], the IC50 is less than 0.25 nM.

Compound `COc1cnc(Cl)cc1-c1cncc(F)c1C(=O)Nc1nnc(C#CC2CC2)s1` [Compound 327] returned an IC50 of 4.1 nM.

In the case of `COc1ccc(C(F)F)cc1-c1cn2ncnc2cc1C(=O)Nc1nnc(C#CC2CC2)s1` [Compound 328], inhibition was half-maximal at 3.1 nM (IC50).

As to `COc1ccc(C(F)(F)F)nc1-c1cnccc1C(=O)Nc1nnc(C#CC2CC2)s1` [Compound 329], the IC50 was determined as 4.1 nM.

`Cc1nc(Cn2cc(-c3cc(C(F)(F)F)ccc3Cl)c(C(=O)Nc3nnc(C#CC4CC4)s3)cc2=O)cs1` [Compound 331]: inhibition was half-maximal at 24 nM (IC50).

For the compound `COc1cnc(Cl)cc1-c1cn(Cc2csc(C)n2)c(=O)cc1C(=O)Nc1nnc(C#CC2CC2)s1` [Compound 332], the half-maximal inhibitory concentration (IC50) amounted to 15 nM.

Take `COc1cnc(Cl)cc1-c1cn(Cc2nccs2)c(=O)cc1C(=O)Nc1nnc(C#CC2CC2)s1` [Compound 333]: it took 3.8 nM to reach half-maximal inhibition (IC50). This IC50 is about 3.9-fold lower than that of the compound before.

In turn, `COc1cnc(Cl)nc1-c1cn(C)c(=O)cc1C(=O)Nc1nnc(C#CC2CC2)s1` [Compound 335] came in with an IC50 of 4.3 nM.

The compound `COc1ccc(C(F)(F)F)cc1-c1cn(C)c(=O)cc1C(=O)Nc1nnc(C#CC2CCCOC2)s1` (centres unmarked) [Compound 336] registered a 50% inhibitory concentration (IC50) of 33 nM. Against the preceding compound, the IC50 is about 7.7-fold higher.

`COc1ccc(C(F)(F)F)cc1-c1cn(C)c(=O)cc1C(=O)Nc1nnc(C#CC2CCOCC2)s1` [Compound 337] returned an IC50 of 9.2 nM.

`COc1cnc(C(F)(F)F)nc1-c1cnccc1C(=O)Nc1nnc(C#CC2CC2)s1` [Compound 338] yielded an IC50 of 4.7 nM.

Compound `COc1ccc(Cl)nc1-c1cnccc1C(=O)Nc1nnc(C#CC2CC2)s1` [Compound 339] yielded an IC50 of 3.4 nM. This IC50 and that of the compound before are within 1.5-fold of each other.

The compound `COc1cnc(Cl)cc1-c1cn2c(C#N)cnc2cc1C(=O)Nc1nnc(C#CC2CC2)s1` [Compound 341] showed a half-maximal inhibitory concentration (IC50) of 3.2 nM.

Compound `COc1cnc(Cl)cc1-c1cn2c(C(N)=O)cnc2cc1C(=O)Nc1nnc(C#CC2CC2)s1` [Compound 342] gave a concentration for half-maximal inhibition (IC50) of 13 nM.

For `COc1ccc(C(F)(F)F)cc1-c1cn(C)c(=O)cc1C(=O)Nc1nnc(C#CC2COC2)s1` [Compound 343], the IC50 was determined as 8.4 nM.

In the case of `COc1ncc(Cl)cc1-c1cnccc1C(=O)Nc1nnc(C#CC2CC2)s1` [Compound 344], 4.3 nM corresponded to half-maximal inhibition (IC50).

Compound `COc1ccc(C(F)(F)F)cc1-c1cn2ncnc2cc1C(=O)Nc1nnc(C#CC2CC2)s1` [Compound 345] had a 50% inhibitory concentration (IC50) of 3.7 nM.

Consider `COc1cnc(Cl)cc1-c1cn(CC(=O)N2CCOCC2)c(=O)cc1C(=O)Nc1nnc(C#CC2CC2)s1` [Compound 347], for which half-maximal inhibition (IC50) was put at 3.4 nM.

Consider `COc1cnc(C(F)F)cc1-c1cc(-c2cnn(C(F)F)c2)ncc1C(=O)Nc1nnc(C#CC2CC2)s1` [Compound 349], for which the IC50 is less than 0.25 nM.

The compound `COc1cnc(C(F)F)cc1-c1cc(-c2ccn(C(F)F)n2)ncc1C(=O)Nc1nnc(C#CC2CC2)s1` [Compound 350] had a half-maximal inhibitory concentration (IC50) of less than 0.25 nM.

`COc1cnc(C(F)F)cc1-c1cc(-c2nn(C)cc2C)ncc1C(=O)Nc1nnc(C#CC2CC2)s1` [Compound 351] displayed a 50% inhibitory concentration (IC50) of less than 0.25 nM.

`COc1cnc(C(F)F)cc1-c1cc(N2CCCC(F)C2=O)ncc1C(=O)Nc1nnc(C#CC2CC2)s1` (centres unmarked) [Compound 352] yielded an IC50 of less than 0.25 nM.

Compound `COc1cnc(C(F)F)cc1-c1cc(N2CCC(C)(C)CC2=O)ncc1C(=O)Nc1nnc(C#CC2CC2)s1` [Compound 353] came in with an IC50 of 0.49 nM.

Take `COc1cnc(C(F)F)cc1-c1cc(-c2nnc(C)o2)ncc1C(=O)Nc1nnc(C#CC2CC2)s1` [Compound 354]: it took 0.27 nM to reach half-maximal inhibition (IC50).

`COc1cnc(C(F)F)cc1-c1cc(-c2cnn(C3CCOCC3)c2)ncc1C(=O)Nc1nnc(C#CC2CC2)s1` [Compound 355]: the IC50 was found to be 0.3 nM.

Compound `COc1cnc(C(F)F)cc1-c1cc(N2CCn3cncc3C2=O)ncc1C(=O)Nc1nnc(C#CC2CC2)s1` [Compound 356] yielded an IC50 of less than 0.25 nM.

Regarding `COc1cnc(C(F)F)cc1-c1cc(N2CCN(C(C)=O)CC2=O)ncc1C(=O)Nc1nnc(C#CC2CC2)s1` [Compound 357], the IC50 is less than 0.25 nM.

`COC(=O)N1CCN(c2cc(-c3cc(C(F)F)ncc3OC)c(C(=O)Nc3nnc(C#CC4CC4)s3)cn2)C(=O)C1` [Compound 358] registered an IC50 of less than 0.25 nM.

`COc1cnc(C(F)F)cc1-c1cc(N2CC3(COC3)CC2=O)ncc1C(=O)Nc1nnc(C#CC2CC2)s1` [Compound 359]: the IC50 is 1.7 nM.

On to `COc1cnc(C(F)F)cc1-c1cc(N2CC3(CCOCC3)CC2=O)ncc1C(=O)Nc1nnc(C#CC2CC2)s1` [Compound 360], for which the IC50 was 7.2 nM.

The compound `COc1cnc(C(F)F)cc1-c1cc(C2C[C@@H]2C(=O)N(C)C)ncc1C(=O)Nc1nnc(C#CC2CC2)s1` (some centres unmarked) [Compound 361] gave an IC50 of 1.9 nM.

Turning to `COc1cnc(C(F)F)cc1-c1cc(C2C[C@@H]2C(=O)N(C)C)ccc1C(=O)Nc1nnc(C#CC2CC2)s1` (some centres unmarked) [Compound 362], the IC50 amounted to 1.4 nM.

On to `COc1cnc(C(F)F)cc1-c1cc(C2C[C@H]2C(=O)N(C)C)ccc1C(=O)Nc1nnc(C#CC2CC2)s1` (some centres unmarked) [Compound 363], for which the IC50 is less than 0.25 nM.

Regarding `COc1cnc(C(F)F)cc1-c1cc(N2CCNCC2=O)ncc1C(=O)Nc1nnc(C#CC2CC2)s1` [Compound 364], the IC50 is 0.559 nM.

With `COc1cnc(C(F)F)cc1-c1cc(N2C(=O)[C@H]3CC[C@@H]2C3)ncc1C(=O)Nc1nnc(C#CC2CC2)s1` [Compound 365], the half-maximal inhibitory concentration (IC50) was found to be 100 nM. Against the preceding compound, the IC50 is about 180-fold higher.

With `COc1cnc(C(F)F)cc1-c1cc(N2CCN(C(C)=O)CC2)ccc1C(=O)Nc1nnc(C#CC2CC2)s1` [Compound 366], half-maximal inhibition (IC50) was put at 3 nM.

Consider `COc1cnc(C(F)F)cc1-c1cc(N2CCN(C)C(C)(C)C2=O)ncc1C(=O)Nc1nnc(C#CC2CC2)s1` [Compound 367], for which the half-maximal inhibitory concentration (IC50) came out at 0.27 nM.

`COc1cnc(C(F)F)cc1-c1cc(N2C(=O)[C@@H]3CC[C@H]2C3)ncc1C(=O)Nc1nnc(C#CC2CC2)s1` [Compound 368] had an IC50 of 7.1 nM.

Turning to `COc1cnc(C(F)F)cc1-c1cc(-c2cc(C#N)n(C)n2)ncc1C(=O)Nc1nnc(C#CC2CC2)s1` [Compound 371], it took 8.1 nM to reach half-maximal inhibition (IC50).

With `COc1cnc(C(F)F)cc1-c1cc(-c2cnn(C3COC3)c2)ccc1C(=O)Nc1nnc(C#CC2CC2)s1` [Compound 372], the half-maximal inhibitory concentration (IC50) turned out to be 0.39 nM. This IC50 is about 21-fold lower than that of the compound before.

The compound `C#C[C@H]1CC1c1nnc(NC(=O)c2ccc(-c3nnc(C)o3)cc2-c2cc(C(F)F)ncc2OC)s1` (some centres unmarked) [Compound 373] had a half-inhibitory concentration (IC50) of 4.6 nM.

For the compound `COc1cnc(C(F)F)cc1-c1cc(-c2nnc(C)o2)ccc1C(=O)Nc1nc(C#CC2CC2)cs1` [Compound 374], the IC50 is more than 100 nM.

Compound `[2H]C([2H])([2H])Oc1cnc(C(F)F)cc1-c1cc(-c2ccn(C)n2)ncc1C(=O)Nc1nnc(C#CC2CC2)s1` [Compound 375] showed an IC50 of less than 0.25 nM.

On to `COc1cnc(C(F)F)cc1-c1cc(-c2nnc(C)o2)ccc1C(=O)Nc1nc(C#N)c(C#CC2CC2)s1` [Compound 376], for which the IC50 was 3 nM. This counts as single-digit nanomolar.

Regarding `COc1cnc(C(F)F)cc1-c1cc(N2CCOC[C@@H]2C)ncc1C(=O)Nc1nnc(C#CC2CC2)s1` [Compound 377], the half-inhibitory concentration (IC50) is more than 100 nM.

Consider `COc1cnc(C(F)F)cc1-c1cc(C#CC2CCOCC2)ncc1C(=O)Nc1nnc(C#Cc2cc(C)[nH]n2)s1` [Compound 378], for which the concentration for half-maximal inhibition (IC50) is less than 0.25 nM.

Regarding `COc1cnc(C(F)F)cc1-c1cc(N2CCOC[C@H]2C)ncc1C(=O)Nc1nnc(C#CC2CC2)s1` [Compound 379], the IC50 was determined as 18 nM.

Turning to `COc1cnc(C(F)F)cc1-c1cc(N2CC(C)(C)CC2=O)ncc1C(=O)Nc1nnc(C#CC2CC2)s1` [Compound 380], the 50% inhibitory concentration (IC50) came out at 11 nM.

For `COc1cnc(C(F)F)cc1-c1cc(N2CC3CC(C3)C2=O)ncc1C(=O)Nc1nnc(C#CC2CC2)s1` [Compound 381], the concentration for half-maximal inhibition (IC50) was less than 0.25 nM.

On to `COc1cnc(C(F)F)cc1-c1cc(N2CCN(C(=O)OC(C)C)CC2=O)ncc1C(=O)Nc1nnc(C#CC2CC2)s1` [Compound 382], for which the IC50 was less than 0.25 nM.

Compound `COc1cnc(C(F)F)cc1-c1cc(N2CC[C@H]3C[C@H]3C2=O)ncc1C(=O)Nc1nnc(C#CC2CC2)s1` [Compound 383] returned an IC50 of less than 0.25 nM.

`COc1cnc(C(F)F)cc1-c1cc(N2CC[C@@H]3C[C@@H]3C2=O)ncc1C(=O)Nc1nnc(C#CC2CC2)s1` [Compound 384]: the concentration for half-maximal inhibition (IC50) was less than 0.25 nM.

For `COc1cnc(C(F)F)cc1-c1cc(N2CCN(CC3CC3)CC2=O)ncc1C(=O)Nc1nnc(C#CC2CC2)s1` [Compound 386], the IC50 was less than 0.25 nM.
